From article PMC12136037, “Type II kinase inhibitors that target Parkinson’s disease–associated LRRK2” (Science Advances, 2025)
Several values for one entry are separate records, joined by “and”; a condition that tells them apart may be missing. Identical values can stand only once. Like-named read-outs stand apart in the source and are kept apart here.

Columns and labels:
CLK1 = biological target: T1, CLK1 (Homo sapiens, UniProt P49759); test: nanoBRET off-target validation; type: cell-based
T1 construct: host or cells: HEK293T (ATCC CRL-3216)
T1 sequence (P49759 whole entry): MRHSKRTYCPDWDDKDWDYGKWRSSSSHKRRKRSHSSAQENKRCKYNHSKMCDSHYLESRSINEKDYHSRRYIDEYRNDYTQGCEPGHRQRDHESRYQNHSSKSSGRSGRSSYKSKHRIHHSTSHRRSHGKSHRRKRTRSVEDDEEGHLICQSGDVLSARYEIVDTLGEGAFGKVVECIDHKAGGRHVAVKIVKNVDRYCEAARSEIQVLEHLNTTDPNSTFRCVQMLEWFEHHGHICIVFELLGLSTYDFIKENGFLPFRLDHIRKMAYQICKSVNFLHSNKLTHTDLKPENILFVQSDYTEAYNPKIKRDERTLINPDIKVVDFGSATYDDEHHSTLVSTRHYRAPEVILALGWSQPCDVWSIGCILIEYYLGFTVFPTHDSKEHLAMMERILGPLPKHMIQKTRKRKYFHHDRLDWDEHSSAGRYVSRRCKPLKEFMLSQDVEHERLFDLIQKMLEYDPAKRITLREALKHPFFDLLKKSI
Method: (§1) The assay was performed as described previously ([61]). In brief, full-length kinases as listed in table S6 were obtained as plasmids cloned in frame with terminal NanoLuc-fusion (gift from Promega; table S6). […] Serially diluted inhibitor and corresponding tracer as listed in table S6 at the Tracer KD concentration taken from TracerDB (tracerdb.org) ([62]) were pipetted into white 384-well plates (Greiner, 781207) using an ECHO acoustic dispenser (Labcyte). The corresponding protein-transfected cells were added and reseeded at a density of 2 × 10^5 cells/ml after trypsinization and resuspending in Opti-MEM without phenol red (Life Technologies). The system was allowed to equilibrate for 3 hours at 37°C/5% CO2 before bioluminescence resonance energy transfer (BRET) measurements. To measure BRET, NanoBRET NanoGlo Substrate + extracellular NanoLuc Inhibitor (Promega, N2540) was added as per the manufacturer’s protocol, and filtered luminescence was measured on a PHERAstar plate reader (BMG Labtech) equipped with a luminescence filter pair [450-nm BP filter (donor) and 610-nm LP filter (acceptor)]. […] (For step-by-step protocol, see www.eubopen.org/sites/www.eubopen.org/files/attachments/2021/NanoBRET-IC50_v1_0.pdf.)

TTK = biological target: T2, TTK (Homo sapiens, UniProt P33981); test: nanoBRET off-target validation; type: cell-based
T2 construct: host or cells: HEK293T (ATCC CRL-3216)
T2 sequence (P33981 1-857): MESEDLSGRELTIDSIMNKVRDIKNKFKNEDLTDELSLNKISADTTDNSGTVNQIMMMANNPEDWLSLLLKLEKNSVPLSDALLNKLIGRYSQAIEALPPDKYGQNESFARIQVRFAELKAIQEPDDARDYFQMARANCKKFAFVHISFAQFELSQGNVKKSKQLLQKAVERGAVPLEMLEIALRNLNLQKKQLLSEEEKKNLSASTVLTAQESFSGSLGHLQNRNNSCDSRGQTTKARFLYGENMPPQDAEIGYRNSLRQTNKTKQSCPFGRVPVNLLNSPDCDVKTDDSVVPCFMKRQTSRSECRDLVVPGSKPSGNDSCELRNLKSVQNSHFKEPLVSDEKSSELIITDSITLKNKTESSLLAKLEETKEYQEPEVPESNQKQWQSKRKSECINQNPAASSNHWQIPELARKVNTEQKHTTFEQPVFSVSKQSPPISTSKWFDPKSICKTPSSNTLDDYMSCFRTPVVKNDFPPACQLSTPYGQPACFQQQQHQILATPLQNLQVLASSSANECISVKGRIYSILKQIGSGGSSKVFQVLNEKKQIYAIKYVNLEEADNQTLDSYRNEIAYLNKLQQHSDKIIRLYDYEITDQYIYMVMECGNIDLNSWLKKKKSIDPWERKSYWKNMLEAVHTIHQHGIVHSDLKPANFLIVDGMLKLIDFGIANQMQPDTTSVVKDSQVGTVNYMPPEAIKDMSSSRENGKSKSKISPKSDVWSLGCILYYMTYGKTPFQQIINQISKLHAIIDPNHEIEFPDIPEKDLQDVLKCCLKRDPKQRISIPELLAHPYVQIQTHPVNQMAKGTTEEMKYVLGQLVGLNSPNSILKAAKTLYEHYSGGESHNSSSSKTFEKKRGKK
Method: as §1

In the case of `CCSc1nc(NC)c2c(-c3cccc(NC(=O)Nc4cc(C(C)(C)C)nn4-c4ccc(C)cc4)c3)c[nH]c2n1` [Compound 32], the EC50 (CLK1) is reported as 6 µM, the “nanoBRET response normalized to 0% (no tracer) and 100% (no inhibitor) control” value (CLK1; CLK1, inhibitor 8 nM, two replicates, listed as RN341, 0.008 µM) is reported as 96.3388% and the normalized NanoBRET tracer signal at 0.008 µM (CLK1; CLK1, inhibitor 8 nM, two replicates, read-out: nanoBRET response normalized to 0% (no tracer) and 100% (no inhibitor) control) is reported as 99.4%. The “nanoBRET response normalized to 0% (no tracer) and 100% (no inhibitor) control” value (CLK1; CLK1, inhibitor 16 nM, two replicates, listed as RN341, 0.016 µM) was 93.1575%, the normalized NanoBRET tracer signal at 0.016 µM (CLK1; CLK1, inhibitor 16 nM, two replicates, read-out: nanoBRET response normalized to 0% (no tracer) and 100% (no inhibitor) control) was 93.9% and the “nanoBRET response normalized to 0% (no tracer) and 100% (no inhibitor) control” value (CLK1; CLK1, inhibitor 50 nM, two replicates, listed as RN341, 0.05 µM) was 98.6143%. The normalized NanoBRET tracer signal at 0.05 µM (CLK1; CLK1, inhibitor 50 nM, two replicates, read-out: nanoBRET response normalized to 0% (no tracer) and 100% (no inhibitor) control) was 97.1%, the “nanoBRET response normalized to 0% (no tracer) and 100% (no inhibitor) control” value (CLK1; CLK1, inhibitor 250 nM, two replicates, listed as RN341, […]) was 91.8848% and the normalized NanoBRET tracer signal at […] (CLK1; CLK1, inhibitor 250 nM, two replicates, read-out: nanoBRET response normalized to 0% (no tracer) and 100% (no inhibitor) control) was 93.8%. For the same molecule, the “nanoBRET response normalized to 0% (no tracer) and 100% (no inhibitor) control” value (CLK1; CLK1, inhibitor 500 nM, two replicates, listed as RN341, 0.5 µM) was 89.5722%, the normalized NanoBRET tracer signal at 0.5 µM (CLK1; CLK1, inhibitor 500 nM, two replicates, read-out: nanoBRET response normalized to 0% (no tracer) and 100% (no inhibitor) control) was 87.8% and the “nanoBRET response normalized to 0% (no tracer) and 100% (no inhibitor) control” value (CLK1; CLK1, inhibitor 2500 nM, two replicates, listed as RN341, […]) was 66.5911%. For the same molecule, the normalized NanoBRET tracer signal at […] (CLK1; CLK1, inhibitor 2500 nM, two replicates, read-out: nanoBRET response normalized to 0% (no tracer) and 100% (no inhibitor) control) was 70.4%, the “nanoBRET response normalized to 0% (no tracer) and 100% (no inhibitor) control” value (CLK1; CLK1, inhibitor 5000 nM, two replicates, listed as RN341, 5 µM) was 68.3349% and the normalized NanoBRET tracer signal at 5 µM (CLK1; CLK1, inhibitor 5000 nM, two replicates, read-out: nanoBRET response normalized to 0% (no tracer) and 100% (no inhibitor) control) was 62%. The “nanoBRET response normalized to 0% (no tracer) and 100% (no inhibitor) control” value (CLK1; CLK1, inhibitor 25000 nM, two replicates, listed as RN341, 25 µM) was 18.5705%, the normalized NanoBRET tracer signal at 25 µM (CLK1; CLK1, inhibitor 25000 nM, two replicates, read-out: nanoBRET response normalized to 0% (no tracer) and 100% (no inhibitor) control) was 17.2% and the “nanoBRET response normalized to 0% (no tracer) and 100% (no inhibitor) control” value (TTK; TTK, inhibitor 8 nM, two replicates, listed as RN341, 0.008 µM) was 91.3329%. The remaining activity at 0.008 µM (TTK; TTK, inhibitor 8 nM, two replicates, read-out: nanoBRET response normalized to 0% (no tracer) and 100% (no inhibitor) control) was 96.9%, the “nanoBRET response normalized to 0% (no tracer) and 100% (no inhibitor) control” value (TTK; TTK, inhibitor 16 nM, two replicates, listed as RN341, 0.016 µM) was 88.618% and the remaining activity at 0.016 µM (TTK; TTK, inhibitor 16 nM, two replicates, read-out: nanoBRET response normalized to 0% (no tracer) and 100% (no inhibitor) control) was 84.1%. For the same molecule, the “nanoBRET response normalized to 0% (no tracer) and 100% (no inhibitor) control” value (TTK; TTK, inhibitor 50 nM, two replicates, listed as RN341, 0.05 µM) was 96.6909%, the remaining activity at 0.05 µM (TTK; TTK, inhibitor 50 nM, two replicates, read-out: nanoBRET response normalized to 0% (no tracer) and 100% (no inhibitor) control) was 85.3% and the “nanoBRET response normalized to 0% (no tracer) and 100% (no inhibitor) control” value (TTK; TTK, inhibitor 250 nM, two replicates, listed as RN341, […]) was 83.1162%. For the same molecule, the remaining activity at […] (TTK; TTK, inhibitor 250 nM, two replicates, read-out: nanoBRET response normalized to 0% (no tracer) and 100% (no inhibitor) control) was 80%, the “nanoBRET response normalized to 0% (no tracer) and 100% (no inhibitor) control” value (TTK; TTK, inhibitor 500 nM, two replicates, listed as RN341, 0.5 µM) was 67.3053% and the remaining activity at 0.5 µM (TTK; TTK, inhibitor 500 nM, two replicates, read-out: nanoBRET response normalized to 0% (no tracer) and 100% (no inhibitor) control) was 61.5%. For the same molecule, the “nanoBRET response normalized to 0% (no tracer) and 100% (no inhibitor) control” value (TTK; TTK, inhibitor 2500 nM, two replicates, listed as RN341, […]) was 72.9908%, the remaining activity at […] (TTK; TTK, inhibitor 2500 nM, two replicates, read-out: nanoBRET response normalized to 0% (no tracer) and 100% (no inhibitor) control) was 70.3% and the “nanoBRET response normalized to 0% (no tracer) and 100% (no inhibitor) control” value (TTK; TTK, inhibitor 5000 nM, two replicates, listed as RN341, 5 µM) was 54.1735%. The remaining activity at 5 µM (TTK; TTK, inhibitor 5000 nM, two replicates, read-out: nanoBRET response normalized to 0% (no tracer) and 100% (no inhibitor) control) was 40.9%, the “nanoBRET response normalized to 0% (no tracer) and 100% (no inhibitor) control” value (TTK; TTK, inhibitor 25000 nM, two replicates, listed as RN341, 25 µM) was 18.6146% and the remaining activity at 25 µM (TTK; TTK, inhibitor 25000 nM, two replicates, read-out: nanoBRET response normalized to 0% (no tracer) and 100% (no inhibitor) control) was 14.2%. For the same molecule, the EC50 (TTK; in cellulo nanoBRET, 293T cells) was < 5 µM and 3.2 µM.
